Test results: publication PMC7023430, “4-Aminobenzoic Acid Derivatives: Converting Folate Precursor to Antimicrobial and Cytotoxic Agents” (Biomolecules, 2019)
Values after ≈ are worked out from the molar mass of the structure shown. Where two headings read alike, the source gives them in different places.

What was measured:
[1] = tested on: HepG2 cells; test: Cytotoxicity, CellTiter 96 assay; assay type: cell-based, human; conditions: 24 h incubation
Method in brief: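 HepG2 cells (10,000/well) exposed 24 h at 37 °C, 5% CO2 to compounds in DMSO (≤1% v/v final), triplicates. Viability by tetrazolium-to-formazan reduction (CellTiter 96 AQueous One), absorbance 490 nm after 2 h. IC50 from nonlinear regression versus untreated controls; 10% DMSO defined 0% viability.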

[2] = tested on: Aspergillus fumigatus 231; test: Antifungal microdilution broth method, A. fumigatus; assay type: cell-based
Method in brief: (§1)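 EUCAST-based broth microdilution with slight modifications: compounds dissolved in DMSO and diluted twofold in RPMI-1640 with L-glutamine, 2% glucose, MOPS-buffered to pH 7.0. MIC endpoints were read visually, in duplicate, valid only if parallel MICs differed by no more than one dilution step.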

[3] = tested on: ESBL-positive Klebsiella pneumoniae J 14368/08
[4] = tested on: Mycobacterium kansasii 235/80; test: Antimycobacterial micromethod in Šula's medium, M. kansasii 235/80; assay type: cell-based
[5] = tested on: Enterococcus faecalis ATCC 29212, CCM 4224; test: Antibacterial microdilution broth method, E. faecalis; assay type: cell-based; conditions: Enterococcus faecalis
[6] = tested on: methicillin-resistant Staphylococcus aureus ATCC 43300, CCM 4750 (MRSA); test: Antibacterial microdilution broth method, MRSA; assay type: cell-based; conditions: Staphylococcus aureus
[7] = tested on: Candida tropicalis 156; test: Antifungal microdilution broth method, C. tropicalis; assay type: cell-based
Method in brief: as §1

[8] = tested on: Candida glabrata 20/I; test: Antifungal microdilution broth method, C. glabrata; assay type: cell-based; conditions: Nakaseomyces glabratus
Method in brief: as §1

[9] = tested on: Candida krusei E28; test: Antifungal microdilution broth method, C. krusei; assay type: cell-based; conditions: Pichia kudriavzevii
Method in brief: as §1

[10] = tested on: Staphylococcus aureus ATCC 29213, CCM 4223; test: Antibacterial microdilution broth method, S. aureus; assay type: cell-based
[11] = tested on: Lichtheimia corymbifera 272; test: Antifungal microdilution broth method, L. corymbifera; assay type: cell-based
Method in brief: as §1

[12] = tested on: Trichosporon asahii 1188; test: Antifungal microdilution broth method, T. asahii; assay type: cell-based
Method in brief: as §1

[13] = tested on: Pseudomonas aeruginosa ATCC 27853, CCM 3955; test: Antibacterial microdilution broth method, P. aeruginosa; assay type: cell-based; conditions: Pseudomonas aeruginosa
[14] = tested on: Escherichia coli ATCC 25922, CCM 3954; test: Antibacterial microdilution broth method, E. coli; assay type: cell-based; conditions: Escherichia coli
[15] = tested on: M. kansasii 6509/96 (clinical isolate); test: Antimycobacterial micromethod in Šula's medium, M. kansasii 6509/96; assay type: cell-based; conditions: Mycobacterium kansasii
[16] = tested on: Mycobacterium avium 330/88; test: Antimycobacterial micromethod in Šula's medium, M. avium; assay type: cell-based
[17] = 235/80, 168 h, 7 days incubation at 37 °C, read-out: MIC M. kansasii 235/80 7 d
[18] = 235/80, 336 h, 14 days incubation at 37 °C, read-out: MIC M. kansasii 235/80 14 d
[19] = 235/80, 504 h, 21 days incubation at 37 °C, read-out: MIC M. kansasii 235/80 21 d
[20] = 24 h incubation, read-out: MIC EF 24 h
[21] = 48 h incubation, read-out: MIC EF 48 h
[22] = 24 h incubation, read-out: MIC MRSA 24 h
[23] = 48 h incubation, read-out: MIC MRSA 48 h
[24] = 24 h incubation, read-out: MIC SA 24 h
[25] = 48 h incubation, read-out: MIC SA 48 h
[26] = P. aeruginosa, 24 h incubation, read-out: MIC PA 24 h
[27] = P. aeruginosa, 48 h incubation, read-out: MIC PA 48 h
[28] = 24 h incubation, read-out: MIC EC 24 h
[29] = 48 h incubation, read-out: MIC EC 48 h
[30] = 168 h, 7 days incubation at 37 °C, read-out: MIC M. kansasii 6509/96 7 d
[31] = 336 h, 14 days incubation at 37 °C, read-out: MIC M. kansasii 6509/96 14 d
[32] = 504 h, 21 days incubation at 37 °C, read-out: MIC M. kansasii 6509/96 21 d
[33] = 330/88, 336 h, 14 days incubation at 37 °C, read-out: MIC M. avium 330/88 14 d
[34] = 330/88, 504 h, 21 days incubation at 37 °C, read-out: MIC M. avium 330/88 21 d

SMILES | IC50 ([1]; Homo sapiens, HepG2, 24 h) [µM] | MIC ([2]; 24 h, read-out: MIC AF 24 h) [µM] | MIC ([2]; 48 h, read-out: MIC AF 48 h) [µM] | MIC KP-E 24 h [3] [µM] | MIC KP-E 48 h [3] [µM] | MIC [4, 17] [µM] | MIC [4, 18] [µM] | MIC [4, 19] [µM] | MIC [5, 20] [µM] | MIC [5, 21] [µM] | MIC [6, 22] [µM] | MIC [6, 23] [µM] | MIC ([7]; 24 h, read-out: MIC CT 24 h) [µM] | MIC ([7]; 48 h, read-out: MIC CT 48 h) [µM] | MIC ([8]; 24 h, read-out: MIC CG 24 h) [µM] | MIC ([8]; 48 h, read-out: MIC CG 48 h) [µM] | MIC ([9]; 24 h, read-out: MIC CK 24 h) [µM] | MIC ([9]; 48 h, read-out: MIC CK 48 h) [µM] | MIC [10, 24] [µM] | MIC [10, 25] [µM] | further results
O=C(O)c1ccc(N=Cc2cc(Cl)cc(Cl)c2O)cc1 [1n, 4-[(3,5-Dichloro-2-hydroxybenzylidene)amino]benzoic acid] | 98.7 | 500 (≈ 155 µg/mL) | 500 (≈ 155 µg/mL) | >500 | >500 | 500 (≈ 155 µg/mL) | 500 (≈ 155 µg/mL) | 500 (≈ 155 µg/mL) | > 500 | > 500 | 250 (≈ 77.5 µg/mL) | 250 (≈ 77.5 µg/mL) | 250 (≈ 77.5 µg/mL) | 250 (≈ 77.5 µg/mL) | 125 (≈ 38.8 µg/mL) | 125 (≈ 38.8 µg/mL) | 125 (≈ 38.8 µg/mL) | 125 (≈ 38.8 µg/mL) | 125 (≈ 38.8 µg/mL) | 125 (≈ 38.8 µg/mL) | MIC ([11]; 24 h, read-out: MIC LC 24 h): 500 µM (≈ 155 µg/mL); MIC ([11]; 48 h, read-out: MIC LC 48 h): 500 µM (≈ 155 µg/mL); MIC ([12]; 24 h, read-out: MIC TA 24 h): 125 µM (≈ 38.8 µg/mL); MIC ([12]; 48 h, read-out: MIC TA 48 h): 125 µM (≈ 38.8 µg/mL); MIC [13, 26]: > 500 µM; MIC [13, 27]: > 500 µM; MIC [14, 28]: > 500 µM; MIC [14, 29]: > 500 µM; MIC [15, 30]: 250 µM (≈ 77.5 µg/mL); MIC [15, 31]: 500 µM (≈ 155 µg/mL); MIC [15, 32]: 500 µM (≈ 155 µg/mL); MIC [16, 33]: 1000 µM (≈ 310 µg/mL); MIC [16, 34]: 1000 µM (≈ 310 µg/mL)
O=C(O)c1ccc(N=Cc2ccc([N+](=O)[O-])o2)cc1 [1r, 4-{[(5-Nitrofuran-2-yl)methylene]amino}benzoic acid] | 15 | > 500 | > 500 | 500 (≈ 130 µg/mL) | 500 (≈ 130 µg/mL) | 62.5 (≈ 16.3 µg/mL) | 125 (≈ 32.5 µg/mL) | 250 (≈ 65.1 µg/mL) | > 500 | > 500 | 62.5 (≈ 16.3 µg/mL) | 62.5 (≈ 16.3 µg/mL) | 250 (≈ 65.1 µg/mL) | 250 (≈ 65.1 µg/mL) | 250 (≈ 65.1 µg/mL) | 250 (≈ 65.1 µg/mL) | 62.5 (≈ 16.3 µg/mL) | 62.5 (≈ 16.3 µg/mL) | 62.5 (≈ 16.3 µg/mL) | 62.5 (≈ 16.3 µg/mL) | MIC ([11]; 24 h, read-out: MIC LC 24 h): > 500 µM; MIC ([11]; 48 h, read-out: MIC LC 48 h): > 500 µM; MIC ([12]; 24 h, read-out: MIC TA 24 h): 500 µM (≈ 130 µg/mL); MIC ([12]; 48 h, read-out: MIC TA 48 h): 500 µM (≈ 130 µg/mL); MIC [13, 26]: 500 µM (≈ 130 µg/mL); MIC [13, 27]: 500 µM (≈ 130 µg/mL); MIC ([13]; time not stated, read-out: MIC, P. aeruginosa): 500 µM (≈ 130 µg/mL); MIC [14, 28]: > 500 µM; MIC [14, 29]: > 500 µM; MIC [15, 30]: 125 µM (≈ 32.5 µg/mL); MIC [15, 31]: 125 µM (≈ 32.5 µg/mL); MIC [15, 32]: 250 µM (≈ 65.1 µg/mL); MIC [16, 33]: 250 µM (≈ 65.1 µg/mL); MIC [16, 34]: 500 µM (≈ 130 µg/mL)
O=C(O)c1ccc(N=Cc2cccc(Cl)c2O)cc1 [1m, 4-[(3-Chloro-2-hydroxybenzylidene)amino]benzoic acid] | 247 | 250 (≈ 68.9 µg/mL) | 250 (≈ 68.9 µg/mL) | >500 | >500 | 500 (≈ 138 µg/mL) | 500 (≈ 138 µg/mL) | 500 (≈ 138 µg/mL) | > 500 | > 500 | > 500 | > 500 | 62.5 (≈ 17.2 µg/mL) | 62.5 (≈ 17.2 µg/mL) | 62.5 (≈ 17.2 µg/mL) | 62.5 (≈ 17.2 µg/mL) | 250 (≈ 68.9 µg/mL) | 250 (≈ 68.9 µg/mL) | > 500 | > 500 | MIC ([11]; 24 h, read-out: MIC LC 24 h): 500 µM (≈ 138 µg/mL); MIC ([11]; 48 h, read-out: MIC LC 48 h): 500 µM (≈ 138 µg/mL); MIC ([12]; 24 h, read-out: MIC TA 24 h): 125 µM (≈ 34.5 µg/mL); MIC ([12]; 48 h, read-out: MIC TA 48 h): 125 µM (≈ 34.5 µg/mL); MIC [13, 26]: > 500 µM; MIC [13, 27]: > 500 µM; MIC [14, 28]: > 500 µM; MIC [14, 29]: > 500 µM; MIC [15, 30]: 250 µM (≈ 68.9 µg/mL); MIC [15, 31]: 500 µM (≈ 138 µg/mL); MIC [15, 32]: 500 µM (≈ 138 µg/mL); MIC [16, 33]: 1000 µM (≈ 276 µg/mL); MIC [16, 34]: 1000 µM (≈ 276 µg/mL)
COc1ccc(O)c(C=Nc2ccc(C(=O)O)cc2)c1 [1h, 4-[(2-Hydroxy-5-methoxybenzylidene)amino]benzoic acid] | > 500 | > 500 | > 500 | >500 | >500 | 500 (≈ 136 µg/mL) | 500 (≈ 136 µg/mL) | 500 (≈ 136 µg/mL) | > 500 | > 500 | > 500 | > 500 | 500 (≈ 136 µg/mL) | 500 (≈ 136 µg/mL) | 250 (≈ 67.8 µg/mL) | 250 (≈ 67.8 µg/mL) | 500 (≈ 136 µg/mL) | 500 (≈ 136 µg/mL) | > 500 | > 500 | IC50 [1]: 530 µM; MIC ([11]; 24 h, read-out: MIC LC 24 h): > 500 µM; MIC ([11]; 48 h, read-out: MIC LC 48 h): > 500 µM; MIC ([12]; 24 h, read-out: MIC TA 24 h): 500 µM (≈ 136 µg/mL); MIC ([12]; 48 h, read-out: MIC TA 48 h): 500 µM (≈ 136 µg/mL); MIC [13, 26]: > 500 µM; MIC [13, 27]: > 500 µM; MIC [14, 28]: > 500 µM; MIC [14, 29]: > 500 µM; MIC [15, 30]: 500 µM (≈ 136 µg/mL); MIC [15, 31]: 500 µM (≈ 136 µg/mL); MIC [15, 32]: 500 µM (≈ 136 µg/mL); MIC [16, 33]: 1000 µM (≈ 271 µg/mL); MIC [16, 34]: 1000 µM (≈ 271 µg/mL)
